Measured values as given in US20210261621A1, “Preparation of Dilipid Polymixins and Use Thereof as Antimicrobial Adjuvants” (priority 2018, published 2021).
In brackets after ≈: the same amount, converted by molar mass. Like-named read-outs stand apart in the source and are kept apart here. Positions of bridges follow the written chain, without caps; N, C: chain ends. Non-standard residues stand in square brackets, D forms with d. Residues, ends and D or L forms follow the SMILES beside them. *: point of attachment. Acetyl(1-adamantyl) = O=C(CC12CC3CC(CC(C3)C1)C2)*; Benzoyl(4-Ph) = O=C(c1ccc(-c2ccccc2)cc1)*; Dab = NCC[C@H](N)C(=O)O

How the values were obtained:
[1] = test system: S. maltophilia CAN-ICU 62584; format: cell-based, Stenotrophomonas maltophilia; conditions: S. maltophilia CAN-ICU 62584
From the text: (§1) Bacterial strains were either obtained from the American Type Culture Collection (ATCC), Canadian National Intensive Care Unit (CAN-ICU) surveillance study or the Canadian Ward Surveillance (CANWARD) study. Strains from both CAN-ICU and CANWARD are isolates recovered from patients diagnosed with a presumed infectious disease that were admitted in a participating medical center across Canada. Efflux-deficient strain PAO200 (lacking MexAB-OprM efflux system) and PA0750 (lacking MexAB-OprM, MexCD-OprJ, MexEF-OprN, MexJK and MexXY efflux systems, and the outer membrane protein OpmH) were kindly gifted by Dr. Ayush Kumar (University of Manitoba).
(§2) The in vitro antibacterial activity of the compounds studied were assessed by broth microdilution susceptibility testing following CLSI guidelines. Bacterial cultures were grown overnight prior to the assay. The overnight grown cultures were diluted in saline to 0.5 McFarland turbidity, followed by 1:50 dilution in Mueller-Hinton broth (MHB) for inoculation to a final concentration of approximately 5×10^5 colony forming units/mL. Testing was performed on 96-well plates where the tested compounds were 2-fold serially diluted in MHB and incubated with equal volumes of bacterial inoculum at 37° C. for 18 h. […] Wells containing MHB with or without bacterial cells were used as positive or negative control, respectively.

[2] = test system: K. pneumoniae 116381; format: cell-based, Klebsiella pneumoniae; conditions: K. pneumoniae 116381
From the text: as §1, §2

[3] = test system: K. pneumoniae ATCC 13883; format: cell-based, Klebsiella pneumoniae; conditions: K. pneumoniae ATCC 13883
From the text: as §1, §2

[4] = test system: P. aeruginosa PA100036; format: cell-based, Pseudomonas aeruginosa; conditions: P. aeruginosa PA100036
From the text: as §1, §2

[5] = test system: P. aeruginosa PAO1; format: cell-based, Pseudomonas aeruginosa; conditions: P. aeruginosa PAO1 (wild type)
From the text: as §1, §2

[6] = test system: P. aeruginosa PA095; format: cell-based, Pseudomonas aeruginosa; conditions: P. aeruginosa PA095
From the text: as §1, §2

[7] = test system: P. aeruginosa PA262-101856; format: cell-based, Pseudomonas aeruginosa; conditions: P. aeruginosa PA262-101856
From the text: as §1, §2

[8] = test system: P. aeruginosa PA260-97103; format: cell-based, Pseudomonas aeruginosa; conditions: P. aeruginosa PA260-97103
From the text: as §1, §2

[9] = test system: P. aeruginosa PA259-96918; format: cell-based, Pseudomonas aeruginosa; conditions: P. aeruginosa PA259-96918
From the text: as §1, §2

[10] = test system: P. aeruginosa PA264-104354; format: cell-based, Pseudomonas aeruginosa; conditions: P. aeruginosa PA264-104354
From the text: as §1, §2

[11] = test system: P. aeruginosa PA101885; format: cell-based, Pseudomonas aeruginosa; conditions: P. aeruginosa PA101885
From the text: as §1, §2

[12] = test system: P. aeruginosa ATCC 27853; format: cell-based, Pseudomonas aeruginosa; conditions: P. aeruginosa ATCC 27853
From the text: as §1, §2

[13] = test system: P. aeruginosa CAN-ICU 62308; format: cell-based, Pseudomonas aeruginosa; conditions: P. aeruginosa CAN-ICU 62308
From the text: as §1, §2

[14] = test system: MSSE CANWARD-2008 81388; format: cell-based, Staphylococcus epidermidis; conditions: for MIC: MSSE CANWARD-2008 81388 (methicillin-susceptible Staphylococcus epidermidis)
From the text: as §1, §2

[15] = test system: A. baumannii 110193; format: cell-based, Acinetobacter baumannii; conditions: A. baumannii 110193
From the text: as §1, §2

[16] = test system: A. baumannii CAN-ICU 63169; format: cell-based, Acinetobacter baumannii; conditions: A. baumannii CAN-ICU 63169
From the text: as §1, §2

[17] = test system: A. baumannii AB027; format: cell-based, Acinetobacter baumannii; conditions: A. baumannii AB027
From the text: as §1, §2

[18] = test system: A. baumannii ATCC 17978; format: cell-based, Acinetobacter baumannii; conditions: A. baumannii ATCC 17978
From the text: as §1, §2

[19] = test system: A. baumannii LAC-4; format: cell-based, Acinetobacter baumannii; conditions: A. baumannii LAC-4
From the text: as §1, §2

[20] = test system: A. baumannii AB031; format: cell-based, Acinetobacter baumannii; conditions: A. baumannii AB031
From the text: as §1, §2

[21] = test system: MRSE CAN-ICU 61589; format: cell-based, S. epidermidis; conditions: MRSE CAN-ICU 61589 (methicillin-resistant S. epidermidis)
From the text: as §1, §2

[22] = test system: K. pneumoniae 113250; format: cell-based, Klebsiella pneumoniae
Procedure: (§3) We then addressed the possibility for the dilipid polymyxins to display enhanced antibacterial activity against colistin-resistant Gram-negative pathogens. […] The extended hydrophobic region of the dilipid polymyxin may provide additional hydrophobic interactions to the outer membrane of colistin-resistant organisms. Eight MDR colistin-resistant Gram-negative bacterial isolates were tested, including two E. coli isolates harboring the mcr-1 plasmid-encoded polymyxin resistance gene. We found no difference between the antibacterial activity of dilipid polymyxins and colistin against colistin-resistant Gram-negative bacteria (Table 3).
as §1, §2

[23] = test system: K. pneumoniae 113254; format: cell-based, Klebsiella pneumoniae
Procedure: as §3, §1, §2

[24] = test system: P. aeruginosa 114228; format: cell-based, Pseudomonas aeruginosa
Procedure: as §3, §1, §2

[25] = test system: P. aeruginosa 101243; format: cell-based, Pseudomonas aeruginosa
Procedure: as §3, §1, §2

[26] = test system: P. aeruginosa 91433; format: cell-based, Pseudomonas aeruginosa
Procedure: as §3, §1, §2

| Compound | MIC [1] [µg/mL] | MIC [2] [µg/mL] | MIC [3] [µg/mL] | MIC [4] [µg/mL] | MIC [5] [µg/mL] | MIC [6] [µg/mL] | MIC [7] [µg/mL] | MIC [8] [µg/mL] | MIC [9] [µg/mL] | MIC [10] [µg/mL] | MIC [11] [µg/mL] | MIC [12] [µg/mL] | MIC [13] [µg/mL] | MIC [14] [µg/mL] | MIC [15] [µg/mL] | MIC [16] [µg/mL] | MIC [17] [µg/mL] | MIC [18] [µg/mL] | MIC [19] [µg/mL] | MIC [20] [µg/mL] | other results |
| --- | --- | --- | --- | --- | --- | --- | --- | --- | --- | --- | --- | --- | --- | --- | --- | --- | --- | --- | --- | --- | --- |
| CC(C)C[C@@H]1NC(=O)[C@@H](Cc2ccccc2)NC(=O)[C@H](CCN)NC(=O)[C@@H](NC(=O)[C@H](CCN)NC(=O)[C@@H](NC(=O)[C@H](CCNC(=O)CC23CC4CC(CC(C4)C2)C3)NC(=O)CC23CC4CC(CC(C4)C2)C3)[C@@H](C)O)CCNC(=O)[C@H]([C@@H](C)O)NC(=O)[C@H](CCN)NC(=O)[C@H](CCN)NC1=O [Compound 4, Diadamantane Acetic Acid (Di-Adamantyl) Polymyxin] ({Acetyl(1-adamantyl)}-[Dab](Acetyl(1-adamantyl))T[Dab][Dab][Dab][dF]L[Dab][Dab]T; lactam 4-C) | 64 (≈ 45.2 µM) | >128 | >128 | 8 (≈ 5.65 µM) | 4 (≈ 2.83 µM) | 4 (≈ 2.83 µM) | 8 (≈ 5.65 µM) | 4 (≈ 2.83 µM) | 8 (≈ 5.65 µM) | 8 (≈ 5.65 µM) | 8 (≈ 5.65 µM) | 16 (≈ 11.3 µM) | 16 (≈ 11.3 µM) | 16 (≈ 11.3 µM) | 32 (≈ 22.6 µM) | 128 (≈ 90.4 µM) | 64 (≈ 45.2 µM) | 32 (≈ 22.6 µM) | 16 (≈ 11.3 µM) | 16 (≈ 11.3 µM) | MIC [21]: 16 µg/mL (≈ 11.3 µM); MIC [22]; 113250: >64 µg/mL; MIC [23]; 113254: >64 µg/mL; MIC [24]; 114228: 8 µg/mL (≈ 5.65 µM); MIC [25]; 101243: 64 µg/mL (≈ 45.2 µM); MIC [26]; 91433: 8 µg/mL (≈ 5.65 µM) |
| CC(C)C[C@@H]1NC(=O)[C@@H](Cc2ccccc2)NC(=O)[C@H](CCN)NC(=O)[C@@H](NC(=O)[C@H](CCN)NC(=O)[C@@H](NC(=O)[C@H](CCNC(=O)c2ccc(-c3ccccc3)cc2)NC(=O)c2ccc(-c3ccccc3)cc2)[C@@H](C)O)CCNC(=O)[C@H]([C@@H](C)O)NC(=O)[C@H](CCN)NC(=O)[C@H](CCN)NC1=O [Compound 5, Dibiphenyl-4-Carboxylic Acid (Di-Biphenyl) Polymyxin] ({Benzoyl(4-Ph)}-[Dab](Benzoyl(4-Ph))T[Dab][Dab][Dab][dF]L[Dab][Dab]T; lactam 4-C) | 64 (≈ 45 µM) | >128 | >128 | 8 (≈ 5.62 µM) | 8 (≈ 5.62 µM) | 4 (≈ 2.81 µM) | 8 (≈ 5.62 µM) | 8 (≈ 5.62 µM) | 8 (≈ 5.62 µM) | 8 (≈ 5.62 µM) | 8 (≈ 5.62 µM) | 32 (≈ 22.5 µM) | 16 (≈ 11.2 µM) | 8 (≈ 5.62 µM) | 16 (≈ 11.2 µM) | 64 (≈ 45 µM) | 6 (≈ 4.21 µM) | 16 (≈ 11.2 µM) | 16 (≈ 11.2 µM) | 8 (≈ 5.62 µM) | fold better MIC than colistin ([14]; methicillin-susceptible Staphylococcus epidermidis): 32 fold; MIC [21]: 8 µg/mL (≈ 5.62 µM); MIC [22]; 113250: >64 µg/mL; MIC [23]; 113254: >64 µg/mL; MIC [24]; 114228: 16 µg/mL (≈ 11.2 µM); MIC [25]; 101243: >128 µg/mL; MIC [26]; 91433: 8 µg/mL (≈ 5.62 µM) |
| colistin [reference compound] | 64 | 1 | ≤0.25 | 1 | 1 | 0.25 | 2 | 0.5 | 0.25 | 2 | 1 | 2 | 2 | 256 | 0.25 | 32 | 0.25 | 0.25 | 0.125 | 0.25 | MIC [21]: 128 µg/mL; MIC ([22]; K. pneumoniae 113250, colistin-resistant multidrug-resistant isolate): 256 µg/mL; MIC ([23]; K. pneumoniae 113254, colistin-resistant multidrug-resistant isolate): 256 µg/mL; MIC ([24]; P. aeruginosa 114228, colistin-resistant multidrug-resistant isolate): 4 µg/mL; MIC ([25]; P. aeruginosa 101243, colistin-resistant multidrug-resistant isolate): 1024 µg/mL; MIC ([26]; P. aeruginosa 91433, colistin-resistant multidrug-resistant isolate): 4 µg/mL |
